From US10335453B2, “Compositions and methods for improving sexual function” (Nymox Corporation, priority 2017, dated 2019)
Peptide text beside a SMILES is read from it.

How the values were obtained:
BPH patients [1] = experiment: Example 4: proportion with no worsening or improvement in SFQ, two NX-1207 injections vs PBS followed by one NX-1207 injection; set-up: species or system human; details: in vivo
Description: One hundred and fifty (150) BPH patients with no prior history of any conventional approved medical or surgical treatment (“treatment naïve”) for BPH were given an intraprostatic injection of either (a) NX-1207 (2.5 mg) in phosphate buffered saline pH 7.2 (“PBS”) (n=83) or (b) PBS alone (n=67), under double-blind conditions by a urologist in an office setting under ultrasound guidance. All patients were followed for a period of 12.6-51.1 months and then treated by a second open-label injection of NX-1207 (2.5 mg) in PBS. Prior to their treatment each patient's sexual function was assessed by history and each patient completed a Sexual Function Questionnaire (“SFQ”) which scored from 0 to 12 points the degree to which the patient considered they had any problems with 1. lack of sex drive, 2. ability to get and keep an erection, and 3. problems with ejaculation, (Problem Assessment Scale of the Brief Male Sexual Function Inventory). A higher score indicates improvement with a better sexual functional self-assessment and less of a sexual problem; a lower score indicates worsening with more of a sexual problem. Many approved BPH medications and treatments are associated with lower scores. The SFQ was subsequently re-administered 6 months post second treatment. […]

BPH patients [2] = experiment: Example 3: SFQ mean change, treatment naïve BPH patients, two NX-1207 injections vs PBS followed by one NX-1207 injection; details: human, in vivo
Description: One hundred and fifty six (156) BPH patients with no prior history of any conventional approved medical or surgical treatment (“treatment naïve”) for BPH were given an intraprostatic injection of either (a) NX-1207 (2.5 mg) in phosphate buffered saline pH 7.2 (“PBS”) (n=88) or (b) PBS alone (n=68), under double-blind conditions by a urologist in an office setting under ultrasound guidance. All patients were followed for a period of 12.6-51.1 months and then treated by a second open-label injection of NX-1207 (2.5 mg) in PBS. Prior to their treatment each patient's sexual function was assessed by history and each patient completed a Sexual Function Questionnaire (“SFQ”) which scored from 0 to 12 points the degree to which the patient considered they had any problems with 1. lack of sex drive, 2. ability to get and keep an erection, and 3. problems with ejaculation, (Problem Assessment Scale of the Brief Male Sexual Function Inventory). A higher score indicates improvement with a better sexual functional self-assessment and less of a sexual problem; a lower score indicates worsening with more of a sexual problem. Many approved BPH medications and treatments are associated with lower scores. The SFQ was subsequently re-administered 6 months post second treatment. […]

BPH patients [3] = experiment: Example 7: proportion of BPH patients with SFQ<=3, NX-1207 in treatment naive vs previously treated patients; type: in vivo, human; details: at 12.6-51.1 months
Description: Three hundred and twenty four (324) BPH patients were given an intraprostatic injection of either (a) NX-1207 (2.5 mg) in phosphate buffered saline pH 7.2 (“PBS”) (n=189) or (b) PBS alone (n=135), under double-blind conditions by a urologist in an office setting under ultrasound guidance. These patients were followed for 12.6-51.1 months after treatment and their progress was monitored by urological investigations. Prior to their treatment each patient's sexual function was assessed by history and each patient completed a Sexual Function Questionnaire (“SFQ”) which scored from 0 to 12 points the degree to which the patient considered they had any problems with 1. lack of sex drive, 2. ability to get and keep an erection, and 3. problems with ejaculation; (Problem Assessment Scale of the Brief Male Sexual Function Inventory). A higher score indicates improvement with a better sexual functional self-assessment and less of a sexual problem; a lower score indicates worsening with more of a sexual problem. Many approved BPH medications and treatments are associated with lower scores. Eighty nine (89) BPH patients in this group had baseline pre-treatment SFQ scores<=3 points indicating significant sexual problems. The SFQ was subsequently re-administered 12.6-51.1 months post-treatment. […]

prostate gland = details: human, in vivo; cited from earlier work
patients with BPH = experiment: Example 1: Sexual Function Questionnaire (SFQ), treatment naïve BPH patients, one intraprostatic injection, 12 months follow-up; type: in vivo, human; details: at 12 months
Description: Three hundred and seventy (370) patients with BPH and with no prior history of any conventional approved medical or surgical treatment (“treatment naïve”) for BPH were given an intraprostatic injection of either (a) NX-1207 (2.5 mg) in phosphate buffered saline pH 7.2 (“PBS”) (n=213) or (b) PBS alone (n=157), under double-blind conditions by a urologist in an office setting under ultrasound guidance. These patients were followed for 12 months after treatment and their progress was monitored by urological investigations. Prior to their treatment each patient's sexual function was assessed by history and each patient completed a Sexual Function Questionnaire (“SFQ”) which scored from 0 to 12 points the degree to which the patient considered they had any problems with 1. lack of sex drive, 2. ability to get and keep an erection, and 3. problems with ejaculation, (Problem Assessment Scale of the Brief Male Sexual Function Inventory). A higher score indicates improvement with a better sexual functional self-assessment and less of a sexual problem; a lower score indicates worsening with more of a sexual problem. Many approved BPH medications and treatments are associated with lower scores. The SFQ was subsequently re-administered 12 months post-treatment. The difference from baseline score in the SFQ was compared in NX-1207 patients vs results in patients who received PBS alone.

BPH patients [4] = experiment: Example 6: proportion of treatment-naive BPH patients with SFQ<=3, NX-1207 vs PBS, 12.6-51.1 months; type: in vivo, human; details: at 12.6-51.1 months
Description: Three hundred twenty four (324) BPH patients were given an intraprostatic injection of either (a) NX-1207 (2.5 mg) in phosphate buffered saline pH 7.2 (“PBS”) (n=189) or (b) PBS alone (n=135), under double-blind conditions by a urologist in an office setting under ultrasound guidance. These patients were followed for 12.6-51.1 months after treatment and their progress was monitored by urological investigations. Prior to their treatment each patient's sexual function was assessed by history and each patient completed a Sexual Function Questionnaire (“SFQ”) which scored from 0 to 12 points the degree to which the patient considered they had any problems with 1. lack of sex drive, 2. ability to get and keep an erection, and 3. problems with ejaculation; (Problem Assessment Scale of the Brief Male Sexual Function Inventory). A higher score indicates improvement with a better sexual functional self-assessment and less of a sexual problem; a lower score indicates worsening with more of a sexual problem. Many approved BPH medications and treatments are associated with lower scores. Eighty nine (89) BPH patients in this group had baseline pre-treatment SFQ scores<=3 points indicating significant sexual problems. The SFQ was subsequently re-administered 12.6-51.1 months post-treatment. […]

BPH patients [5] = experiment: Example 5: SFQ long-term mean change, treatment naive BPH patients, one injection, 12.6-51.1 months; type: in vivo, human; details: at 12.6-51.1 months
Description: One hundred and fifty (150) BPH patients with no prior history of any conventional approved medical or surgical treatment (“treatment naive”) for BPH were given an intraprostatic injection of either (a) (2.5 mg) NX-1207 (2.5 mg) in phosphate buffered saline pH 7.2 (“PBS”) (n=83) or (b) PBS alone (n=67) under double-blind conditions by a urologist in an office setting under ultrasound guidance. These patients were followed for 12.6-51.1 months after treatment and their progress was monitored by urological investigations. Prior to their treatment each patient's sexual function was assessed by history and each patient completed a Sexual Function Questionnaire (“SFQ”) which scored from 0 to 12 points the degree to which the patient considered they had any problems with 1. lack of sex drive, 2. ability to get and keep an erection, and 3. problems with ejaculation; (Problem Assessment Scale of the Brief Male Sexual Function Inventory). A higher score indicates improvement with a better sexual functional self-assessment and less of a sexual problem; a lower score indicates worsening with more of a sexual problem. Many approved BPH medications and treatments are associated with lower scores. The SFQ was subsequently re-administered 12.6-51.1 months post-treatment.

[6] = tested on: BPH patients with significant sexual problems; experiment: Example 2: SFQ, treatment naïve BPH patients with significant sexual problems (baseline SFQ<=3), one intraprostatic injection, 12 months; type: in vivo, human; details: at 12 months
Description: One hundred twenty three (123) BPH patients with significant sexual problems and with no prior history of any conventional approved medical or surgical treatment (“treatment naïve”) for BPH were given an intraprostatic injection of either (a) NX-1207 (2.5 mg) in phosphate buffered saline pH 7.2 (“PBS”) (n=75) or (b) PBS alone (n=48), under double-blind conditions by a urologist in an office setting under ultrasound guidance. These patients were followed for 12 months after treatment and their progress was monitored by urological investigations. Prior to their treatment each patient's sexual function was assessed by history and each patient completed a Sexual Function Questionnaire (“SFQ”) which scored from 0 to 12 points the degree to which the patient considered they had any problems with 1. lack of sex drive, 2. ability to get and keep an erection, and 3. problems with ejaculation; (Problem Assessment Scale of the Brief Male Sexual Function Inventory). A higher score indicates improvement with a better sexual functional self-assessment and less of a sexual problem; a lower score indicates worsening with more of a sexual problem. Many approved BPH medications and treatments, and conditions are associated with lower scores. All 123 BPH patients in this group had baseline pre-treatment SFQ scores<=3 points indicating significant sexual problems. […]

Q: With `CC[C@H](C)[C@H](N)C(=O)N[C@@H](CC(=O)O)C(=O)N[C@@H](CCC(N)=O)C(=O)N[C@@H](CCC(N)=O)C(=O)N[C@H](C(=O)N[C@@H](CC(C)C)C(=O)N[C@@H](CO)C(=O)N[C@@H](CCCNC(=N)N)C(=O)N[C@H](C(=O)N[C@@H](CCCCN)C(=O)N[C@@H](CC(C)C)C(=O)N[C@@H](CCC(=O)O)C(=O)N[C@H](C(=O)N[C@@H](CCCCN)C(=O)N[C@@H](CCCNC(=N)N)C(=O)N[C@@H](CS)C(=O)N[C@@H](CC(C)C)C(=O)O)[C@@H](C)CC)[C@@H](C)CC)C(C)C` [SEQ ID NO: 66, IDQQVLSRIKLEIKRCL] (H-IDQQVLSRIKLEIKRCL-OH) as the compound, how does the “sexual adverse events attributable to NX-1207” value (BPH patients [1]) read?
A: The value was “no significant incidence of sexual adverse events”.

Q: What about the “sexual adverse events attributable to NX-1207” value (BPH patients [2]) of the same compound?
A: The value was “no significant incidence of sexual adverse events”.

Q: What about the “sexual adverse events attributable to NX-1207” value (BPH patients [3]) of the same compound?
A: The value was “no incidence of significant sexual adverse events”.

Q: And the safety profile (prostate gland)?
A: The safety profile was “excellent safety profile”.

Q: And the “sexual adverse events attributable to NX-1207” value (patients with BPH)?
A: The value was “no significant incidence of sexual adverse events”.

Q: What about the “sexual adverse events attributable to NX-1207” value (BPH patients [4]) of the same compound?
A: Its value is “no significant incidence of sexual adverse events”.

Q: What about the “sexual adverse events attributable to NX-1207” value (BPH patients [5]) of the same compound?
A: Its value is “no significant incidence of sexual adverse events”.

Q: What about the “sexual adverse events attributable to NX-1207” value [6] of the same compound?
A: The value was “no significant incidence of sexual adverse events”.
